# Measurements as given in patent publication US20250011307A1, “CRYSTALLINE FORMS OF BIARYL YAP/TAZ-TEAD PROTEIN-PROTEIN INTERACTION INHIBITORS” (Novartis AG, priority 2021, published 2025).
# Structures can show the parent of a compound that is named as a salt.
# How the values were obtained:
# Assay type in all cases: physicochemical
# [1] = Xenon light stress test of bulk (HPLC degradation products, color, XRPD); design: key to CL color: A: No change; B: Slight discoloration; C: Medium discoloration; D: Strong discoloration; settings: Compound B forms, Xenon light (1200 kLuxh, 25° C.)
# Experimental: X-ray powder diffraction (XRPD) patterns were obtained using a Bruker Advance D8 in reflection geometry. Powders were analyzed using a zero background Si flat sample holder. The radiation used was Cu Kα (A=1.5418 Å). Patterns were measured between 2° and 40° 2theta. • Sample amount: 5-10 mg • Sample holder: zero background Si flat sample holder
# X-ray powder diffraction (XRPD) patterns were obtained using a Bruker Advance D8 in reflection geometry. Powders were analyzed using a zero background Si flat sample holder. The radiation was Cu Kα (λ=1.5418 Å). Patterns were measured between 2° and 40° 2theta. • Sample amount: 5-10 mg • Sample holder: zero background Si flat sample holder
# [2] = Solubility after equilibration at 25° C. for 24 h, with final pH and XRPD of solid residues; settings: Compound B forms
# [3] = Solid state bulk stability stress test (HPLC degradation products, color, XRPD); design: key to CL color: A: No change; B: Slight discoloration; C: Medium discoloration; D: Strong discoloration; settings: Compound B forms
# [4] = Hygroscopicity (loss on drying by TGA and XRPD, as is and after storage at 92% / 80% RH); settings: Compound B forms
# [5] = Excipient compatibility stress test (HPLC degradation products, color); design: key to CL color: A: No change; B: Slight discoloration; C: Medium discoloration; D: Strong discoloration; settings: Compound B forms
# [6] = pH 6.8, 50 mM phosphate buffer with 50 mM Na taurocholate
# [7] = After 1 day at 92% RH, TGA temperature per cell: free form @233° C., succinate @205° C., L-malate @200° C., L-lactate @200° C.
# [8] = Hygroscopicity, As is, TGA temperature per cell: free form @233° C., succinate @205° C., L-malate @200° C., L-lactate @200° C.
# [9] = 2 weeks 50° C./75% RH, 1% in HGC powder
# [10] = 2 weeks 50° C./75% RH, 1% in HPMC powder
# [11] = 2 weeks 50° C./closed, 1% in HGC powder
# [12] = 2 weeks 50° C./closed, 1% in HPMC powder
compound,measurement,setting,value
"CNC[C@]1(c2ccccc2)Oc2cc(F)c(Cl)c(-c3c(C(N)=O)ccc(OC)c3F)c2[C@@H]1C [Compound B L-lactate salt, 2-((2S,3S,4S)-5-Chloro-6-fluoro-3-methyl-2-((methylamino)methyl)-2-phenyl-2,3-dihydrobenzofuran-4-yl)-3-fluoro-4-methoxybenzamide]",Bulk amber vial (XRPD),[1]; amber vial,No change
same,CL color,[1]; amber vial,A
same,"DP[%] degradation products, Bulk amber vial (HPLC)",[1]; amber vial,0.17%
same,Bulk clear quartz vial (XRPD),[1]; clear quartz vial,No change
same,CL color,[1]; clear quartz vial,B
same,"DP[%] degradation products, Bulk clear quartz vial (HPLC)",[1]; clear quartz vial,0.38%
same,final pH,[2]; Blank FaSSIF,[6.53]
same,final pH,[2]; FaSSIF V2 pH 6.5,[6.48]
same,final pH,[2]; FeSSIF V2 pH 5.8,[5.79]
same,final pH,[2]; SGF pH 2.0,[2.24]
same,final pH,[2]; Water,[7.03]
same,final pH,"[2]; pH 1.2, 100 mM HCl",[1.12]
same,final pH,"[2]; pH 3.0, 50 mM citrate buffer",[3.06]
same,final pH,"[2]; pH 4.7, 50 mM acetate buffer",[4.70]
same,final pH,"[2]; pH 6.8, 50 mM phosphate buffer",[6.79]
same,final pH,[2]; [6],[6.58]
same,Bulk (XRPD),[3]; 2 weeks 50° C./75% RH,No change
same,CL color,[3]; 2 weeks 50° C./75% RH,A
same,"DP[%] degradation products, Bulk (HPLC)",[3]; 2 weeks 50° C./75% RH,0.33%
same,Bulk (XRPD),[3]; 2 weeks 80° C./11% RH,No change
same,CL color,[3]; 2 weeks 80° C./11% RH,A
same,"DP[%] degradation products, Bulk (HPLC)",[3]; 2 weeks 80° C./11% RH,0.31%
same,Bulk (XRPD),[3]; 2 weeks 80° C./75% RH,No change
same,CL color,[3]; 2 weeks 80° C./75% RH,A
same,"DP[%] degradation products, Bulk (HPLC)",[3]; 2 weeks 80° C./75% RH,2.11%
same,XRPD,[4]; After 1 day at 80% RH,No change
same,Loss on drying by TGA,"[4]; After 1 day at 80% RH, @200° C.",1.08%@200 °C
same,XRPD,[4]; After 1 day at 92% RH,No change
same,Loss on drying by TGA,[4]; [7],1.18%@200 °C
same,Loss on drying by TGA,[4]; [8],0.92%@200 °C
same,CL color,[5]; [9],A
same,DP[%] degradation products,[5]; [9],0.44%
same,CL color,[5]; [10],A
same,DP[%] degradation products,[5]; [10],0.42%
same,CL color,[5]; [11],A
same,DP[%] degradation products,[5]; [11],0.22%
same,CL color,[5]; [12],A
same,DP[%] degradation products,[5]; [12],0.33%
"CNC[C@]1(c2ccccc2)Oc2cc(F)c(Cl)c(-c3c(C(N)=O)ccc(OC)c3F)c2[C@@H]1C [Compound B Succinate salt, 2-((2S,3S,4S)-5-Chloro-6-fluoro-3-methyl-2-((methylamino)methyl)-2-phenyl-2,3-dihydrobenzofuran-4-yl)-3-fluoro-4-methoxybenzamide]",Bulk amber vial (XRPD),[1]; amber vial,No change
same,CL color,[1]; amber vial,A
same,"DP[%] degradation products, Bulk amber vial (HPLC)",[1]; amber vial,0.13%
same,Bulk clear quartz vial (XRPD),[1]; clear quartz vial,No change
same,CL color,[1]; clear quartz vial,B
same,"DP[%] degradation products, Bulk clear quartz vial (HPLC)",[1]; clear quartz vial,2.38%
same,final pH,[2]; Blank FaSSIF,[6.06]
same,Sol. (solubility),"[2]; Blank FaSSIF, target concentration 2 mg/mL",>2000 µg/mL
same,final pH,[2]; FaSSIF V2 pH 6.5,[6.06]
same,Sol. (solubility),"[2]; FaSSIF V2 pH 6.5, target concentration 2 mg/mL",>2000 µg/mL
same,final pH,[2]; FeSSIF V2 pH 5.8,[5.72]
same,Sol. (solubility),"[2]; FeSSIF V2 pH 5.8, target concentration 2 mg/mL",>2000 µg/mL
same,final pH,[2]; SGF pH 2.0,[2.20]
same,Sol. (solubility),"[2]; SGF pH 2.0, target concentration 2 mg/mL",>2000 µg/mL
same,final pH,[2]; Water,[4.97]
same,Sol. (solubility),"[2]; Water, target concentration 2 mg/mL",>2000 µg/mL
same,final pH,"[2]; pH 1.2, 100 mM HCl",[1.17]
same,Sol. (solubility),"[2]; pH 1.2, 100 mM HCl, target concentration 2 mg/mL",>2000 µg/mL
same,final pH,"[2]; pH 3.0, 50 mM citrate buffer",[3.09]
same,Sol. (solubility),"[2]; pH 3.0, 50 mM citrate buffer, target concentration 2 mg/mL",>2000 µg/mL
same,final pH,"[2]; pH 4.7, 50 mM acetate buffer",[4.70]
same,Sol. (solubility),"[2]; pH 4.7, 50 mM acetate buffer, target concentration 2 mg/mL",>2000 µg/mL
same,final pH,"[2]; pH 6.8, 50 mM phosphate buffer",[6.64]
same,final pH,[2]; [6],[6.43]
same,Sol. (solubility),"[2]; pH 6.8, 50 mM phosphate buffer with 50 mM Na taurocholate, target concentration 2 mg/mL",>2000 µg/mL
same,Sol. (solubility),"[2]; pH 6.8, 50 mM phosphate buffer, target concentration 2 mg/mL",>2000 µg/mL
same,Bulk (XRPD),[3]; 2 weeks 50° C./75% RH,No change
same,CL color,[3]; 2 weeks 50° C./75% RH,A
same,"DP[%] degradation products, Bulk (HPLC)",[3]; 2 weeks 50° C./75% RH,0.09%
same,Bulk (XRPD),[3]; 2 weeks 80° C./11% RH,No change
same,CL color,[3]; 2 weeks 80° C./11% RH,A
same,"DP[%] degradation products, Bulk (HPLC)",[3]; 2 weeks 80° C./11% RH,0.08%
same,Bulk (XRPD),[3]; 2 weeks 80° C./75% RH,No change
same,CL color,[3]; 2 weeks 80° C./75% RH,A
same,"DP[%] degradation products, Bulk (HPLC)",[3]; 2 weeks 80° C./75% RH,0.17%
same,Loss on drying by TGA,[4]; [7],0.67%@205 °C
same,Loss on drying by TGA,[4]; [8],0.56%@205 °C
same,CL color,[5]; [9],A
same,DP[%] degradation products,[5]; [9],0.25%
same,CL color,[5]; [10],A
same,DP[%] degradation products,[5]; [10],0.99%
same,CL color,[5]; [11],A
same,DP[%] degradation products,[5]; [11],0.15%
same,CL color,[5]; [12],A
same,DP[%] degradation products,[5]; [12],0.17%
"CNC[C@]1(c2ccccc2)Oc2cc(F)c(Cl)c(-c3c(C(N)=O)ccc(OC)c3F)c2[C@@H]1C [Compound B L-malate salt, 2-((2S,3S,4S)-5-Chloro-6-fluoro-3-methyl-2-((methylamino)methyl)-2-phenyl-2,3-dihydrobenzofuran-4-yl)-3-fluoro-4-methoxybenzamide]","DP[%] degradation products, Bulk amber vial (HPLC)",[1]; amber vial,0.16%
same,"DP[%] degradation products, Bulk clear quartz vial (HPLC)",[1]; clear quartz vial,1.53%
same,final pH,[2]; Blank FaSSIF,[6.04]
same,final pH,[2]; FaSSIF V2 pH 6.5,[5.95]
same,final pH,[2]; FeSSIF V2 pH 5.8,[5.74]
same,final pH,[2]; SGF pH 2.0,[2.17]
same,final pH,[2]; Water,[4.34]
same,final pH,"[2]; pH 3.0, 50 mM citrate buffer",[3.04]
same,final pH,"[2]; pH 4.7, 50 mM acetate buffer",[4.62]
same,final pH,"[2]; pH 6.8, 50 mM phosphate buffer",[6.59]
same,"DP[%] degradation products, Bulk (HPLC)",[3]; 2 weeks 80° C./11% RH,0.46%
same,"DP[%] degradation products, Bulk (HPLC)",[3]; 2 weeks 80° C./75% RH,2.84%
same,Loss on drying by TGA,[4]; [7],0.83%@200 °C
same,Loss on drying by TGA,[4]; [8],0.81%@200 °C
same,DP[%] degradation products,[5]; [9],1.32%
same,DP[%] degradation products,[5]; [10],2.65%
same,DP[%] degradation products,[5]; [11],0.24%
same,DP[%] degradation products,[5]; [12],0.36%
